Key:
recombinant human HDAC6 = target: T1, recombinant human HDAC6 (Homo sapiens, UniProt Q9UBN7); assay: Enzymatic screening on recombinant human HDAC6; format: biochemical; details: Table 2; read-out: HDAC6 IC50
T1 sequence (Q9UBN7 1-1215): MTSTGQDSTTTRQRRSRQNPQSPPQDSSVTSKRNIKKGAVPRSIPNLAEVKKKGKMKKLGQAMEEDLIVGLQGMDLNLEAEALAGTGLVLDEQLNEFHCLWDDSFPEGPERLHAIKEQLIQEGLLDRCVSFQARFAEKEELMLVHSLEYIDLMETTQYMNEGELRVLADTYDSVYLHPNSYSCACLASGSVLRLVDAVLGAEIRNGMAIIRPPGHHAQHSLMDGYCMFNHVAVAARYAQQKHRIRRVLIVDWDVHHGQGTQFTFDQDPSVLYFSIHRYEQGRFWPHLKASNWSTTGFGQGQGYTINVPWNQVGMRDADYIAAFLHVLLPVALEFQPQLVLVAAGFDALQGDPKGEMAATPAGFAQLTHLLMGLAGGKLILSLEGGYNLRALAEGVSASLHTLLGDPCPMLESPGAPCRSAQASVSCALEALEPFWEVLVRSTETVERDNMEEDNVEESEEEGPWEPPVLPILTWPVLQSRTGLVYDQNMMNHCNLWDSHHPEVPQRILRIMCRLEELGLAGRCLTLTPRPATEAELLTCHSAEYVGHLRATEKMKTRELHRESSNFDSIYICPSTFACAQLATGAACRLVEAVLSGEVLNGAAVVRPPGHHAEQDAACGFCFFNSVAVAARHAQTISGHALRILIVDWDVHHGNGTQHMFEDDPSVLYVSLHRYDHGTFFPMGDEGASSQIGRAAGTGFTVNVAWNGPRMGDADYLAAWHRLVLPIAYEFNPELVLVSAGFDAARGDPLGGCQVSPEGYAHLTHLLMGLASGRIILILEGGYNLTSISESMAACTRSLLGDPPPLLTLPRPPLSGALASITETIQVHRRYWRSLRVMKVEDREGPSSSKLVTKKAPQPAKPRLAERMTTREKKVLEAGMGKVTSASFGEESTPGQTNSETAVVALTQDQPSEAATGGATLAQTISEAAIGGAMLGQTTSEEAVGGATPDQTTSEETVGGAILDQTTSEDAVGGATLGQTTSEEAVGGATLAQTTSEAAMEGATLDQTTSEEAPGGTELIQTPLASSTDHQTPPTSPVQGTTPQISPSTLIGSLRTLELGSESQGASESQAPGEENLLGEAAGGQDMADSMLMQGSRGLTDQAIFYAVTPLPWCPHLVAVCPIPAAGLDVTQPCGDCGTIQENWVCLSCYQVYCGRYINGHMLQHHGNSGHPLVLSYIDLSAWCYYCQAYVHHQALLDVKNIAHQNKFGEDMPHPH
Summary of the method: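 Recombinant human HDAC isoforms were incubated with compound at 30 °C for isoform-specific times. Fluor de Lys, Fluor de Lys-Green or trifluoroacetyl-lysine substrate in Tris-HCl pH 8 buffer with NaCl, Tween-20 and glycerol was then added, followed by reaction at 30 °C.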

[1] = system: B 697 promyelocytic cell line; assay: Cytotoxicity on 697 cell line (CellTiter 96); format: cell-based; details: 72 hours incubation, read-out: 697 TOXICITY
Method: (§1) Cytotoxic activity was evaluated on B 697 […] cell line for all synthesized compounds and on peripheral blood mononuclear cells (PBMCs) for compounds showing a good potency/selectivity profile.
(§2) Cells were seeded in plate (2×10^4 cells per well for 697, 5×10^5 cells per well for PBMCs). The test compounds (concentrations from 1.5 nM to 10000 nM for PBMCs and from 1 nM to 10000 nM for 697) were added after 24 hours and incubated 72 hours. The molecules cytotoxic activity was evaluated using CellTiter 96© Aqueous One Solution Cell Proliferation Assay (Promega), which measures the mitochondria function, following the manufacturer's instructions.

[2] = Stability to Phase I metabolism in rat S9 liver fraction; format: in vitro ADME; details: after 90 min, 37° C.
Summary of the method: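 Phase I stability in human and rat hepatic S9 at 37 °C, sampled up to 90 min. Samples were stopped with acidified acetonitrile on ice, then quantified by HPLC-UV or LC-MS/MS.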

Stability in rat plasma = format: in vitro ADME; details: after 4 hours, 37° C.
Summary of the method: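 Compounds incubated at 37° C in rat or human plasma at 50 μM (UV/HPLC) or 1 or 2 μM (LC-MS/MS) for 0–4 h. Reaction stopped with acidified acetonitrile on ice; percent remaining versus initial amount and plasma half-life calculated.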

[3] = system: peripheral blood mononuclear cells (PBMCs); assay: Cytotoxicity on PBMCs (CellTiter 96); format: cell-based; details: PBMC, 72 h; read-out: PBMC TOXICITY (72 h)
Method: as §1, §2

| SMILES | IC50 (recombinant human HDAC6) [nM] | residual percentage in rat S9 fraction [2] [%] | residual percentage in rat plasma (Stability in rat plasma) [%] | IC50 [1] [nM] | IC50 [3] [nM] |
| --- | --- | --- | --- | --- | --- |
| O=C(NO)c1ccc(Cn2nnc(-c3ncccn3)n2)cc1 [comp. 123, 4-[(5-pyrimidin-2-yltetrazol-2-yl)methyl]benzenecarbohydroxamic acid] | 8 | 99 | 99 | 1970 |  |
| O=C(NO)c1cc(F)c(Sc2nnc(CN3CCCC3)n2Cc2ccccc2)c(F)c1 [comp. 141, 4-[[4-benzyl-5-(pyrrolidin-1-yl-methyl)-1,2,4-triazol-3-yl]sulfanyl]-3,5-difluoro-benzenecarbohydroxamic acid] | 25 | 36 | 73 | > 10000 |  |
| O=C(NO)c1cc(F)c(Sc2nnc(-c3ccncc3)n2Cc2ccco2)c(F)c1 [comp. 146, 3,5-difluoro-4-[[4-(2-furylmethyl)-5-(4-pyridyl)-1,2,4-triazol-3-yl]sulfanyl]benzenecarbohydroxamic acid] | 20 | 59 |  | > 10000 |  |
| Cn1c(Sc2c(F)cc(C(=O)NO)cc2F)nnc1C1(c2ccccc2)CCN(Cc2ccccc2)CC1 [comp. 150, 4-[[5-(1-benzyl-4-phenyl-4-piperidyl)-4-methyl-1,2,4-triazol-3-yl]sulfanyl]-3,5-difluoro-benzenecarbohydroxamic acid] | 24 | 35 | 92 | 1260 |  |
| Cn1c(Sc2c(F)cc(C(=O)NO)cc2F)nnc1-c1cccc(S(=O)(=O)N2CCN(Cc3ccccc3)CC2)c1 [comp. 152, 4-[[5-[3-(4-benzylpiperazin-1-yl)sulfonylphenyl]-4-methyl-1,2,4-triazol-3-yl]sulfanyl]-3,5-difluoro-benzenecarbohydroxamic acid] | 22 | 31 | 113 | 1450 |  |
| NCc1ccc(-c2nnnn2Cc2ccc(C(=O)NO)cc2)cc1 [comp. 174, 4-[[5-[4-(aminomethyl)phenyl]tetrazol-1-yl]methyl]benzenecarbohydroxamic acid] | 129 |  |  | 50300 |  |
| COc1ccc(Cc2nnc(-c3cccs3)n2Cc2ccc(C(=O)NO)cc2)cc1OC [comp. 185, 4-[[3-[(3,4-dimethoxyphenyl)methyl]-5-(2-thienyl)-1,2,4-triazol-4-yl]methyl]benzenecarbohydroxamic acid] | 1000 |  |  | 10400 |  |
| O=C(NO)c1ccc(Cn2c(Cc3c[nH]c4ccccc34)nnc2-c2cccs2)cc1 [compound 183, 4-((3-((1H-indol-3-yl)methyl)-5-(thiophen-2-yl)-4H-1,2,4-triazol-4-yl)methyl)-N-hydroxybenzamide] | 212 |  |  | 50300 |  |

Further compounds by falling IC50 (recombinant human HDAC6), results first:

| IC50 (recombinant human HDAC6) [nM] | residual percentage in rat S9 fraction [2] [%] | residual percentage in rat plasma (Stability in rat plasma) [%] | SMILES | IC50 [1] [nM] | IC50 [3] [nM] |
| --- | --- | --- | --- | --- | --- |
| 20 | 34 | 106 | Cn1c(Sc2c(F)cc(C(=O)NO)cc2F)nnc1C(C)(C)c1ccccc1 [comp. 4, 3,5-difluoro-N-hydroxy-4-((4-methyl-5-(2-phenylpropan-2-yl)-4H-1,2,4-triazol-3-yl)thio)benzamide] | > 10000 |  |
| 20 |  |  | COc1cccc(-c2nnc(Sc3ccc(C(=O)NO)cc3)n2C)c1 [comp. 78, 4-[[5-(3-methoxyphenyl)-4-methyl-1,2,4-triazol-3-yl]sulfanyl]benzenecarbohydroxamic acid] | 22200 | 6000 |
| 17 | 36 | 97 | O=C(NO)c1cc(F)c(Cn2nnnc2-c2scc3c2OCCO3)c(F)c1 [comp. 5, 4-((5-(2,3-dihydrothieno[3,4-b][1,4]dioxin-5-yl)-1H-tetrazol-1-yl)methyl)-3,5-difluoro-N-hydroxybenzamide] | 88700 |  |
| 16 | 76 | 89 | O=C(NO)c1cc(F)c(Sc2nnc(-c3cccnc3)n2Cc2ccco2)c(F)c1 [comp. 147, 3,5-difluoro-4-[[4-(2-furylmethyl)-5-(3-pyridyl)-1,2,4-triazol-3-yl]sulfanyl]benzenecarbohydroxamic acid] | > 10000 |  |
| 13 | 45 | 93 | O=C(NO)c1cc(F)c(Cn2nnnc2-c2ccc(C(F)(F)F)cn2)c(F)c1 [comp. 129, 3,5-difluoro-4-[[5-[5-(trifluoromethyl)-2-pyridyl]tetrazol-1-yl]methyl]benzenecarbohydroxamic acid] | 13200 |  |
| 12 | 25 | 100 | Cn1c(Sc2c(F)cc(C(=O)NO)cc2F)nnc1-c1nccc2ccccc12 [comp. 121, 3,5-difluoro-4-[[5-(1-isoquinolyl)-4-methyl-1,2,4-triazol-3-yl]sulfanyl]benzenecarbohydroxamic acid] | 5910 |  |
| 12 | 47 | 94 | Cn1c(Sc2c(F)cc(C(=O)NO)cc2F)nnc1-c1ccc2ccccc2n1 [comp. 122, 3,5-difluoro-4-[[4-methyl-5-(2-quinolyl)-1,2,4-triazol-3-yl]sulfanyl]benzenecarbohydroxamic acid] | 1030 |  |
| 11 | 84 |  | Cn1c(Sc2c(F)cc(C(=O)NO)cc2F)nnc1-c1cnc2ccccn12 [comp. 149, 3,5-difluoro-4-[(5-imidazo[1,2-a]pyridin-3-yl-4-methyl-1,2,4-triazol-3-yl)sulfanyl]benzenecarbohydroxamic acid] | 794 |  |
| 10 | 95 | 76 | O=C(NO)c1cc(F)c(Cn2nnc(Cc3ccccn3)n2)c(F)c1.O=C(O)C(F)(F)F [comp. 134, 3,5-difluoro-4-[[5-(2-pyridylmethyl)tetrazol-2-yl]methyl]benzenecarbohydroxamic acid;2,2,2-trifluoroacetic acid] | > 10000 |  |
| 9 | 62 | 87 | CN1CCN(S(=O)(=O)c2cccc(-c3nnc(Sc4c(F)cc(C(=O)NO)cc4F)n3C)c2)CC1 [comp. 151, 3,5-difluoro-4-[[4-methyl-5-[3-(4-methylpiperazin-1-yl)sulfonylphenyl]-1,2,4-triazol-3-yl]sulfanyl]benzenecarbohydroxamic acid] | 287 |  |
| 7 | 22 | 75 | O=C(NO)c1cc(F)c(Cn2nnnc2-c2nccc3ccccc23)c(F)c1 [comp. 94, 3,5-difluoro-4-[[5-(1-isoquinolyl)tetrazol-1-yl]methyl]benzenecarbohydroxamic acid] | 908 |  |
| 4 | 44 | 87 | O=C(NO)c1ccc(Cn2nnc(-c3ccco3)n2)cc1 [comp. 12, 4-((5-(furan-2-yl)-2H-tetrazol-2-yl)methyl)-N-hydroxybenzamide] | > 10000 |  |
